# Laboratory results from ChEMBL document CHEMBL1201862, “PubChem BioAssay data set” (2004).
# Calls of active or inactive are those of the source.
# How the values were obtained:
# [1] = biological target: T1, Ubiquitin-conjugating enzyme E2 N (Homo sapiens, UniProt P61088); type: functional;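 note: Dose-response confirmation in a TR-FRET assay detecting UBC13-driven polyubiquitin chain formation, inhibition measured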
# T1 sequence (P61088 whole entry): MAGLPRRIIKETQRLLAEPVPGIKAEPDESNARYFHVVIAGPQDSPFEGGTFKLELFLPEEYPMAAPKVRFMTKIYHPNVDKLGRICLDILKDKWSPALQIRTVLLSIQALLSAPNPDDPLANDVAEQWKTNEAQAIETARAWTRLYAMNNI
# [2] = Shn3 3'UTR reporter inhibitors, dose response, cell-based, Clone20 osteoblasts, firefly luciferase, cherry-picked (AID 624132); type: functional;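 note: firefly luciferase luminescence from reporter carrying the Shn3 3'UTR in osteoblasts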
# [3] = HepG2 cell cytotoxicity, dose response, cytotoxicity control for Shn3 inhibitor project, CellTiter-Glo, cherry-picked (AID 624134); type: functional, cell-based
# [4] = control 3'UTR Renilla luciferase suppression, dose response, counter-screen for Shn3 inhibitor project, cell-based, Clone20-Shn3RL, cherry-picked (AID 624133); type: functional
# [5] = growth suppression of PTEN-null colon cells, dose response, cell-based, HCT116 PTEN knockout (AID 1047); type: functional;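 note: HCT116 colon tumor cells with PTEN knocked out; cells exposed to compound for 60 hours before readout; potency for loss of cell viability measured by luminescence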
# [6] = growth suppression of beta-catenin-knockout colon cells, dose response, cell-based, HCT116, human colon tumor (AID 1045); type: functional;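 note: HCT116 colon tumor cells with beta catenin knocked out; cells exposed to compound for 60 hours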
# Cytochrome P450 1A2 = biological target: T2, Cytochrome P450 1A2 (Homo sapiens, UniProt P05177);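 note: PubChem cytochrome P450 panel assay, CYP1A2 panel member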
# T2 sequence (P05177 whole entry): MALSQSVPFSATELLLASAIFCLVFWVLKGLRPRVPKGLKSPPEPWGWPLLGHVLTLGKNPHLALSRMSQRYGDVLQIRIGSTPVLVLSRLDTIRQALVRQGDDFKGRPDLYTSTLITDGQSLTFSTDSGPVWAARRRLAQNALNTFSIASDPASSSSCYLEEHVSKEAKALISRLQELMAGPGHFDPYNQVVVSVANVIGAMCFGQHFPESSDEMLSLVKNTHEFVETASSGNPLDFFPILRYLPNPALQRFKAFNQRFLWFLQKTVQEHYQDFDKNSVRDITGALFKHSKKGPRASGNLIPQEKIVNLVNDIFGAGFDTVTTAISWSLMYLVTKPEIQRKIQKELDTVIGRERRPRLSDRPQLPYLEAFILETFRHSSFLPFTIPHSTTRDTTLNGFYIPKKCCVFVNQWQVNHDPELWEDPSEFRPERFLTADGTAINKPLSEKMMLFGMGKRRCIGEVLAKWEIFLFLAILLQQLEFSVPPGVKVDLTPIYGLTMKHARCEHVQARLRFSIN
# Cytochrome P450 2C9 = Cytochrome P450 2C9 (Homo sapiens, UniProt P11712)
# Cytochrome P450 2C19 = Cytochrome P450 2C19 (Homo sapiens, UniProt P33261); test: Cytochrome panel assay with activity outcomes. Panel member name: p450-cyp2c19 Compounds with AC50 equal or less than 10 uM are considered active; type: functional; conditions: read-out: AC50
# Cytochrome P450 3A4 = Cytochrome P450 3A4 (Homo sapiens, UniProt P08684);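 note: CYP3A4 tested as one member of a cytochrome P450 panel screen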
# Protein skinhead-1 = biological target: T3, Protein skinhead-1 (Caenorhabditis elegans, UniProt P34707); type: functional
# T3 sequence (P34707 whole entry): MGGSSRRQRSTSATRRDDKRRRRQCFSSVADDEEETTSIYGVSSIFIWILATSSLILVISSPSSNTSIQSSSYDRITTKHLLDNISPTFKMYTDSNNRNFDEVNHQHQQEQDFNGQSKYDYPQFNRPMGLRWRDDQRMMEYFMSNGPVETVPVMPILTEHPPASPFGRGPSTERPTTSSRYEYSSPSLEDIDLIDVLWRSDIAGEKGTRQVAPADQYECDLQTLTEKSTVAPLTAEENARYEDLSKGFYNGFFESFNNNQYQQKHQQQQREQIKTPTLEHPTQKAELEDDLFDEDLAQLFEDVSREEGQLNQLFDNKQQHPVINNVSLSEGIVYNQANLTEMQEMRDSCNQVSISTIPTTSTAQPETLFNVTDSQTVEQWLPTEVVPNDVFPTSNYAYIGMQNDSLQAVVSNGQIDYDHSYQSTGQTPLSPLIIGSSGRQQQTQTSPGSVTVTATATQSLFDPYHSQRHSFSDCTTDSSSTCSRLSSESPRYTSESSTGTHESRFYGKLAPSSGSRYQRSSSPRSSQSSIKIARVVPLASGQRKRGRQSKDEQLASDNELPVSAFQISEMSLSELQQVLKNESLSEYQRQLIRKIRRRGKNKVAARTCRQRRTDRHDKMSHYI
# [7] = P. falciparum Dd2 growth inhibitors, dose response, SYBR Green, cherry-picked samples (AID 1159567); type: functional, cell-based
# [8] = intracellular Trypanosoma cruzi inhibitors in host cells – cell-based, plate reader, cherry-pick samples, set 3, dose response (AID 651818); type: functional;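 note: compounds incubated with infected cells for about four days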
# Paired box protein Pax-8 = Paired box protein Pax-8 (Homo sapiens, UniProt Q06710); test: inhibitors of PAX8-driven TPO luciferase reporter, dose response, RMG-I cells, cherry-pick (AID 687027); type: functional, cell-based;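 note: luciferase reporter driven by Pax8 target thyroperoxidase promoter measured by SteadyGlo luminescence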
# Chain of Paired box protein Pax-8 (Q06710 whole entry): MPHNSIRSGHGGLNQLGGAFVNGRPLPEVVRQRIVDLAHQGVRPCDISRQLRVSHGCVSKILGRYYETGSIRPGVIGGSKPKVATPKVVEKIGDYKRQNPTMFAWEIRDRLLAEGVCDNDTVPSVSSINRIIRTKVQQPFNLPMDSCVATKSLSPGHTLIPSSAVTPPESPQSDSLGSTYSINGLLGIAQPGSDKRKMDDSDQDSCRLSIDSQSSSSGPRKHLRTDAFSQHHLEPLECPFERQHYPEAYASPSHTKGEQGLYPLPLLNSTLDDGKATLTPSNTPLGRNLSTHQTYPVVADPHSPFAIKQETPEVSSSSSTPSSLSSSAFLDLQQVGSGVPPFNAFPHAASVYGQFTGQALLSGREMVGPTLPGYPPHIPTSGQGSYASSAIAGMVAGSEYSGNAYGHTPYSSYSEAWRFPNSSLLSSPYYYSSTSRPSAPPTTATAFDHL
# Chain of Cytochrome P450 3A4 (P08684 whole entry): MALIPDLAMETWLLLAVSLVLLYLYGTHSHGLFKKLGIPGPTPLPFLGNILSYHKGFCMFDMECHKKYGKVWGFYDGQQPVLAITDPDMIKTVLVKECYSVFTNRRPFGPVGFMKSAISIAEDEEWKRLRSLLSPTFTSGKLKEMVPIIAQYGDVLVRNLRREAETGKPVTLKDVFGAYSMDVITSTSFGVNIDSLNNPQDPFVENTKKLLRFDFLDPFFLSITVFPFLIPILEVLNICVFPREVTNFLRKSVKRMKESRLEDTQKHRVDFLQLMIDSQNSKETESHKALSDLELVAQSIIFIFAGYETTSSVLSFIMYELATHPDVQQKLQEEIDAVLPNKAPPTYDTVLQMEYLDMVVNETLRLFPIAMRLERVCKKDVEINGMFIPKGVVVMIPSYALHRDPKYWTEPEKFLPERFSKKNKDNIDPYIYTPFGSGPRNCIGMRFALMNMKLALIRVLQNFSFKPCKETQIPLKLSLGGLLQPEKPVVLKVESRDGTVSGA
# Chain of Cytochrome P450 2C9 (P11712 whole entry): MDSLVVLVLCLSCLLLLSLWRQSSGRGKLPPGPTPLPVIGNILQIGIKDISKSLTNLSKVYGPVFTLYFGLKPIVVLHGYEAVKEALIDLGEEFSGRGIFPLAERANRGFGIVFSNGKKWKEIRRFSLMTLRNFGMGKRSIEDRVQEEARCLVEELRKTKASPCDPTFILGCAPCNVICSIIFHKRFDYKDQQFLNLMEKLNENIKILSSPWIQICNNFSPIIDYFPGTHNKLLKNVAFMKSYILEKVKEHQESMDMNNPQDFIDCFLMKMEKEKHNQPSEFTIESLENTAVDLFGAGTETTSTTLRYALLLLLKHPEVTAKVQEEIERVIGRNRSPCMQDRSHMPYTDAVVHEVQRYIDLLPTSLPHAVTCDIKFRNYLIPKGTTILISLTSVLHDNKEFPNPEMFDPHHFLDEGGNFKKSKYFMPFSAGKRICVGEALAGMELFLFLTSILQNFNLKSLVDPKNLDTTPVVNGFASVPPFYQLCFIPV
# Chain of Cytochrome P450 2C19 (P33261 whole entry): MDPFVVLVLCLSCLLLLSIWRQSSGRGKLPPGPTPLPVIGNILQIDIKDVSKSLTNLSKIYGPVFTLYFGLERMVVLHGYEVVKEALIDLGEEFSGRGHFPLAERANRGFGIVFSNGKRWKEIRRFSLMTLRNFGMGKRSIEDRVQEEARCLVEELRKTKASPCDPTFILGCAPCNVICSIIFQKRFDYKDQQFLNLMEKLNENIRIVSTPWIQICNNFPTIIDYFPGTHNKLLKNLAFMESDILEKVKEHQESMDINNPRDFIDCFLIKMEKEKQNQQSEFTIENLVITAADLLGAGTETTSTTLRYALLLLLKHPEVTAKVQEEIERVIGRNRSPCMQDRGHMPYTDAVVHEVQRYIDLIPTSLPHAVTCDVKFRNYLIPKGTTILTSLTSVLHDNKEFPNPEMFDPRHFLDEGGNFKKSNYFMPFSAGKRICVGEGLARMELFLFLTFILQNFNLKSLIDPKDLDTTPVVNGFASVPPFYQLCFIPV
structure (smiles),measurement,setting,value
NC1=NC[C@H](c2ccccc2)N1CCCCC1CCCCC1,IC50,[1],> 20 µM (inactive)
same,AC50,[2],4.23 µM (active)
same,AC50,[3],43.1 µM (active)
same,AC50,[4],3.11 µM (active)
O=C(C1=C[C@@H](c2coc3ccccc3c2=O)C[C@@H](OCc2ccc(CO)cc2)O1)N1CCN(Cc2ccc3c(c2)OCO3)CC1,IC50,[1],> 20 µM (inactive)
O=C(Oc1ccccc1/C=C\C(=O)c1cc2ccccc2o1)c1cccc(F)c1,EC50,[5],8.35 µM (active)
same,EC50,[6],8.35 µM (active)
COC(=O)[C@@]12CCCCN1[C@H](c1ccc(-c3cc(C(C)=O)cs3)c(OC)c1)[C@H]1C(=O)N(C)C(=O)[C@H]12,IC50,[1],> 20 µM (inactive)
CN(Cc1cc(Cl)cc(Cl)c1O)Cc1c(O)ccc2ccccc12,AC50,Cytochrome P450 1A2,0.631 µM (inconclusive)
same,AC50,Cytochrome P450 2C9,3.16 µM (inconclusive)
COc1ccc(-c2nc3cnc(Nc4ccccc4)nc3n(Cc3cccs3)c2=O)cc1,AC50,Cytochrome P450 1A2,25.1 µM (inconclusive)
same,AC50,Cytochrome P450 2C9,12.6 µM (inconclusive)
O=C(NC1CCCCC1)C12CC3CC(C1)CC(n1cncn1)(C3)C2,AC50,Cytochrome P450 2C19,28.2 µM (inconclusive)
same,AC50,Cytochrome P450 1A2,28.2 µM (inconclusive)
same,AC50,Cytochrome P450 3A4,3.55 µM (inconclusive)
same,AC50,Cytochrome P450 2C9,5.01 µM (inconclusive)
O=C(/C=C/c1ccc(-c2ccccc2[N+](=O)[O-])o1)c1ccc(F)cc1,EC50,[5],28.8 µM (active)
same,EC50,[6],35.7 µM (active)
CC(C)CN(Cc1c(O)ccc2c3c(c(=O)oc12)CCC3)CC(C)C,AC50,Cytochrome P450 2C19,20 µM (inconclusive)
same,AC50,Cytochrome P450 1A2,15.8 µM (inconclusive)
same,AC50,Cytochrome P450 3A4,17.8 µM (inconclusive)
Cn1c(-c2ccc(CN3CCCCC3)o2)nc2ccccc21,IC50,Protein skinhead-1,> 100 µM (inactive)
same,AC50,Cytochrome P450 1A2,12.6 µM (inconclusive)
same,AC50,Cytochrome P450 3A4,28.2 µM (inconclusive)
same,AC50,Cytochrome P450 2C9,2 µM (inconclusive)
Oc1ccc(C[C@@H]2CNCCN2CCCCC2CCCCC2)cc1,IC50,[1],> 20 µM (inactive)
CC(C)C[C@@H]1CN=C(N)N1C[C@@H]1CCCN1C[C@@H](C(C)C)N1C[C@@H](Cc2ccccc2)N(CCCC2CCCC2)C1=N,IC50,[1],> 20 µM (inactive)
C[C@@H]1CN([C@@H](C)CO)C(=O)c2c(c3ccccc3n2C)-c2ccccc2CO[C@H]1CN(C)S(=O)(=O)c1ccc(C(F)(F)F)cc1,AC50,[7],3.02 µM (active)
O=C(CCCCCCC(=O)Nc1ccccc1O)N/N=C/c1ccc(OCc2ccccc2)cc1O,AC50,[8],1.16 µM (active)
C[C@H](CO)N1C[C@H](C)[C@H](CN(C)Cc2ccc(C(=O)Nc3ccccc3N)cc2)Oc2ccc(NS(=O)(=O)c3cccs3)cc2CC1=O,AC50,[8],4.59 µM (active)
C[C@H](CO)N1C[C@H](C)[C@@H](CN(C)Cc2ccc(C(=O)Nc3ccccc3N)cc2)Oc2c(NC(=O)Nc3ccc(F)cc3)cccc2C1=O,AC50,[8],4.17 µM (active)
C[C@H](CO)N1C[C@H](C)[C@H](CN(C)Cc2ccc(C(=O)Nc3ccccc3N)cc2)Oc2ccc(NC(=O)Nc3ccc(F)cc3)cc2CC1=O,AC50,[8],2.26 µM (active)
C[C@@H]1CN([C@H](C)CO)C(=O)c2cccc(NC(=O)Nc3ccc(C(F)(F)F)cc3)c2O[C@H]1CN(C)C(=O)Nc1ccc(C(F)(F)F)cc1,AC50,[8],6.75 µM (active)
C[C@H](CO)N1C[C@H](C)[C@H](CN(C)Cc2ccc(-c3ccccc3)cc2)Oc2ccc(NC(=O)Nc3ccc(C(F)(F)F)cc3)cc2C1=O,AC50,[8],5.37 µM (active)
C[C@@H]1CCCCO[C@@H](CN(C)Cc2ccccc2)[C@@H](C)CN([C@H](C)CO)C(=O)c2cc(NC(=O)Nc3ccc(C(F)(F)F)cc3)ccc2O1,AC50,[8],1.64 µM (active)
same,AC50,Paired box protein Pax-8,10.1 µM (active)
C[C@@H]1CN([C@H](C)CO)C(=O)Cc2cc(NS(=O)(=O)c3ccc(Cl)cc3)ccc2O[C@H]1CN(C)Cc1ccc(C(=O)Nc2ccccc2N)cc1,AC50,[8],4.53 µM (active)
C[C@H](CO)N1C[C@H](C)[C@@H](CN(C)Cc2ccc(-c3ccccc3)cc2)Oc2c(NC(=O)NC3CCCCC3)cccc2C1=O,AC50,[8],4.23 µM (active)
C[C@@H]1CCCCO[C@H](CN(C)Cc2ccc(Cl)c(Cl)c2)[C@@H](C)CN([C@H](C)CO)C(=O)c2cc(NS(=O)(=O)c3ccc(Cl)cc3)ccc2O1,AC50,[8],4.22 µM (active)
COc1ccc(CN(C)C[C@@H]2Oc3ccc(NS(=O)(=O)c4ccc(Cl)cc4)cc3CC(=O)N([C@H](C)CO)C[C@H]2C)cc1,AC50,[8],2.61 µM (active)
Cc1ccccc1S(=O)(=O)N1[C@H](CO)[C@@H](c2ccc(C#CC3CCCCC3)cc2)[C@@H]1C#N,AC50,[7],4.12 µM (active)
OC[C@@H]1Nc2ccc(C#Cc3cccc(F)c3)cc2[C@@H]2NCC[C@H]12,AC50,[7],2.83 µM (active)
N#C[C@H]1[C@@H](c2ccc(C#CC3CC3)cc2)[C@H](CO)N1S(=O)(=O)c1ccccc1,AC50,[7],4.18 µM (active)
CCCNC(=O)N1CC2(CCN(C(=O)CN(C)C)CC2)c2c(n(C)c3cc(OC)ccc23)[C@H]1CO,AC50,[7],4.6 µM (active)
COc1ccc(CN2C[C@@H](C)[C@H](OC)CN(C)C(=O)c3cc(NC(=O)c4nc5ccccc5s4)ccc3OC[C@H]2C)cc1,AC50,[7],4.08 µM (active)
Cc1ccc(/C=C/C(=O)c2ccccc2)cc1,EC50,[5],22.6 µM (active)
same,EC50,[6],20.1 µM (active)
